Experiment [1] has as its target human cannabinoid CB1 receptor (Homo sapiens, UniProt P21554). Briefly: In vitro affinity for human cannabinoid CB1 receptors ([3H]CP-55,940 binding, CHO cell membranes). The settings on record: radioligand [3H]-CP-55,940; membranes of CHO cells stably transfected with human CB1 receptor; read-out: CB1 receptor binding [3H]-CP-55,940 pKi (converted). As to the method:
In vitro affinity for human cannabinoid CB1 receptors
After incubation of a freshly prepared cell membrane preparation with the [^3H]-ligand, with or without addition of compounds of the invention, separation of bound and free ligand is performed by filtration over glassfiber filters. Radioactivity on the filter is measured by liquid scintillation counting.

In another experiment the target is T1, serotonin reuptake sites (Rattus norvegicus, UniProt P31652).
T1 construct: from tissue
Put plainly: In vitro affinity for serotonin reuptake sites ([3H]-paroxetine binding, Habert 1985).

Where [2] appears, read: radioligand [3H]-paroxetine, read-out: 5-HT reuptake binding [3H]-paroxetine pKi (converted).

14 compounds from US8138174B2, “Compounds with a combination of cannabinoid CB1 antagonism and serotonin reuptake inhibition” (Solvay Pharmaceuticals B.V., priority 2007, dated 2012) can be followed below.

Read-outs that look alike come from different tables or passages of the source.

Chain of human cannabinoid CB1 receptor (P21554 whole entry): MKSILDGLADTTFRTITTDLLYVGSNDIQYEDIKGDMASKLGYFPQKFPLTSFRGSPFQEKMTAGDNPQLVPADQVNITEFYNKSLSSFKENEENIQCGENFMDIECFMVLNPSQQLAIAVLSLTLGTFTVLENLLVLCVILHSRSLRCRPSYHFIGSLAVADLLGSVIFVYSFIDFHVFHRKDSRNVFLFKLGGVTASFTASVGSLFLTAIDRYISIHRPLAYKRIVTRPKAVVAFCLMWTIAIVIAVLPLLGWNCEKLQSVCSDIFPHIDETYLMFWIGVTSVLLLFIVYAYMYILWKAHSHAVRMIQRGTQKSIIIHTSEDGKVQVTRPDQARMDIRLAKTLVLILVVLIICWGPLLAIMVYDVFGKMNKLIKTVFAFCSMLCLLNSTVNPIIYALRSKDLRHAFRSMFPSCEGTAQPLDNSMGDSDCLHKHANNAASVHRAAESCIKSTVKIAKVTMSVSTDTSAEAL
T1 sequence (P31652 whole entry): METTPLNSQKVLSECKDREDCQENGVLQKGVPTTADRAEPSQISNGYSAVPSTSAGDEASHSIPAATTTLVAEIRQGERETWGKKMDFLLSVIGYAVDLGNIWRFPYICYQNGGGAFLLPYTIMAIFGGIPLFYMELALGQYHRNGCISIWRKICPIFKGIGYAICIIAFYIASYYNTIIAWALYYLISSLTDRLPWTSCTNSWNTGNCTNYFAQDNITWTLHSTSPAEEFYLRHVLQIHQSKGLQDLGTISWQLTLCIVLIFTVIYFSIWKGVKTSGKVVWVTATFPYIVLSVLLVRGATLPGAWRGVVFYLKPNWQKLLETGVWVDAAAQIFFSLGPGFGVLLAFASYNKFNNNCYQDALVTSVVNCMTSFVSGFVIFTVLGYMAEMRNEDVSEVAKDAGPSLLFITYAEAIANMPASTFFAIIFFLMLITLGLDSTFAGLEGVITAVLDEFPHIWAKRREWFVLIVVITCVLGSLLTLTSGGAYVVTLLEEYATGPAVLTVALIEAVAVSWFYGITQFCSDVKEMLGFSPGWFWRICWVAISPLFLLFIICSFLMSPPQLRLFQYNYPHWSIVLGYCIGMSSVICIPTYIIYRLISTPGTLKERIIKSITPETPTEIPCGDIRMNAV

In the case of `O=S(=O)(/N=C(/N1CCN(CCCCc2c[nH]c3ccc(F)cc23)CC1)N1CC(c2ccccc2)C(c2ccc(Cl)cc2)=N1)c1ccc(Cl)cc1` (stereo not shown) [Compound 4], the Ki in experiment [1] is 251 nM; at serotonin reuptake sites (setting [2]), 25.1 nM. For `c1ccc2c(CCC3CCNCC3)c[nH]c2c1` [indalpine], the Ki in experiment [1] is more than 1000 nM. Besides, the “5-HT reuptake binding [3H]-paroxetine pKi” value on serotonin reuptake sites (radioligand [3H]-paroxetine) came to 8.6. On to `Fc1ccc([C@@H]2CCNC[C@H]2COc2ccc3c(c2)OCO3)cc1` [paroxetine], for which the Ki in experiment [1] is more than 1000 nM. On to `Fc1ccc2[nH]cc(CCCCN3CCNCC3)c2c1` [compound A], for which the Ki in experiment [1] was more than 1000 nM; on serotonin reuptake sites, 1.26 nM. Take `Cc1c(C(=O)NN2CCCCC2)nn(-c2ccc(Cl)cc2Cl)c1-c1ccc(Cl)cc1` [rimonabant]: the Ki at serotonin reuptake sites (setting [2]) was 5010 nM. For the compound `CN=C(NS(=O)(=O)c1ccc(Cl)cc1)N1C[C@H](c2ccccc2)C(c2ccc(Cl)cc2)=N1` [SLV319], the Ki at serotonin reuptake sites (setting [2]) is more than 10000 nM.

Consider `CN[C@H]1CC[C@@H](c2ccc(Cl)c(Cl)c2)c2ccccc21` [sertraline], for which the Ki in experiment [1] was more than 10000 nM. On to `CN(C)CCCN1c2ccccc2CCc2ccccc21` [imipramine], for which the Ki in experiment [1] was more than 1000 nM. As for `NCCO/N=C(/CCCCCCN/C(=N/S(=O)(=O)c1ccc(Cl)cc1)N1CC(c2ccccc2)C(c2ccc(Cl)cc2)=N1)c1ccc(C(F)(F)F)cc1` (stereo not shown) [Compound 1], the Ki was 251 nM in experiment [1] and 15.8 nM on serotonin reuptake sites (setting [2]). The “affinity for 5-HT reuptake sites / serotonin reuptake inhibition (in words)” value at serotonin reuptake sites was “as potent a serotonin reuptake inhibitor as fluoxetine”. Take `CCc1c(C(=O)NN2CCCCC2)nc(-c2ccccc2Cl)n1-c1ccc(Cl)cc1` [WO 03/027076]: the “affinity for 5-HT reuptake sites / serotonin reuptake inhibition (in words)” value at serotonin reuptake sites was “completely inactive”. At serotonin reuptake sites (read-out: 5-HT reuptake binding [3H]-paroxetine pKi (converted)), the Ki was more than 31600 nM. Consider `CCc1c(C(=O)NCCCCCCC(=NOCCN)c2ccc(C(F)(F)F)cc2)nc(-c2ccccc2Cl)n1-c1ccc(Cl)cc1` (racemic) [Compound 2, 2-(2-Chlorophenyl)-1-(4-chlorophenyl)-5-ethyl-1H-imidazole-4-carboxylic acid [7-(2-amino-ethoxyimino)-7-[4-(trifluoromethyl)phenyl]heptyl]amide], for which the Ki in experiment [1] was 39.8 nM; on serotonin reuptake sites (setting [2]), 200 nM. `CN(C)CCC=C1c2ccccc2CCc2ccccc21` [amitriptyline]: the Ki in experiment [1] was more than 10000 nM. As to `CN(C)CCCC1(c2ccc(F)cc2)OCc2cc(C#N)ccc21` (stereo not shown) [citalopram], in experiment [1], the Ki is more than 10000 nM.

For `CCc1c(C(=O)N2CCN(CCCCc3c[nH]c4ccc(F)cc34)CC2)nc(-c2ccccc2Cl)n1-c1ccc(Cl)cc1` [Compound 3, [2-(2-Chlorophenyl)-1-(4-chlorophenyl)-5-ethyl-1H-imidazole-4-yl] {4-[4-(5-flouro-1H-indol-3-yl)butyl]piperazin-1-yl}methanone], the results for the Ki (in experiment [1]; at serotonin reuptake sites (setting [2])) were 31.6 nM and 20 nM, respectively.
